Results as given in the NIST ThermoML archive (doi:10.1016/j.jct.2013.07.002).
Numbers after ± are expanded uncertainties.

Conditions: 101.33 kPa, Liquid; for viscosity: Concentric cylinders viscometry; for thermal conductivity: Hot wire method

OCCO [1,2-ethanediol]
Conditions	thermal conductivity [W/m/K]	viscosity [mPa·s]
283.15 K	0.243 ± 0.015	35.44 ± 3.6
288.15 K	–	28 ± 2.8
293.15 K	–	21.89 ± 2.2
298.15 K	–	17.25 ± 1.7
303.15 K	0.246 ± 0.015	13.86 ± 1.4
308.15 K	–	11.64 ± 1.2
313.15 K	–	9.62 ± 0.97
323.15 K	0.249 ± 0.015	7.21 ± 0.72
343.15 K	0.259 ± 0.016	–
